Laboratory results taken from patent US10774096B2, “4-substituted benzoxaborole compounds and uses thereof” (GLAXOSMITHKLINE INTELLECTUAL PROPERTY (NO.2) LIMITED, priority 2015, dated 2020).
pIC50: −log10 of the molar value. Values after ≈ are worked out from the molar mass of the structure shown. Values joined by “and” are separate entries in the source; they are usually repeats but may differ in a detail not shown here. Identical values can stand only once. Counter-ions that a name gives are not always drawn. Like-named read-outs stand apart in the source and are kept apart here.

Experiments:
HepG2 cells = test: HepG2 cytotoxicity assay (resazurin, 48 h); format: cell-based, human
Description: HepG2 cells (HB-8065) were fed fresh medium (Essential Minimum Eagle Medium, EMEM, supplemented with 5% fetal calf serum and 2 mM L-glutamine) the day before subculturing the plates. On the day of plate seeding, a cell suspension of 100,000 cells/mL in culture medium was prepared. Cell suspension (100 uL) was added in each well of a black 96-well microplate with clear bottom, collagen coated, (Becton Dickinson) except in column 11, that was dispensed only 100 uL of culture medium. The plates were incubated for 24 h. It was made up a range of 10 doses of test substances by preparing serial dilutions 1:2 from the stock solution in 100% DMSO and made a dilution of 1:200 of each dose in medium, to achieve a final concentration of 0.5% of DMSO. After 24 h, culture medium was removed from the plate and 150 uL of test compound dilutions were added in two replicates and 150 uL of 0.5% DMSO in culture medium to columns 11 and 12 (blank control). Plates were incubated for 48 and at 37° C., 5% CO2, 95% relative humidity. The medium was then removed and 200 uL of fresh culture medium was added and 50 uL of Resazurin solution to each well and incubated for 1 h and a half. Plates were removed from incubator to allow the fluorescence to stabilise at room temperature protected from light for 15 min. For read out of viability of cells we used Resazurine (BDH). Resazurin is used as an oxidation-reduction indicator that yields a colorimetric change and a fluorescent signal in response to metabolic activity. As cell grows, metabolic activity results in a chemical reduction of Resazurin indicated by a change from non-fluorescent blue to the reduced fluorescent pink form. The degree of Resazurin fluorescence is therefore, an indicator of the number of viable cells in the culture system. Fluorescence was measured at an excitation wavelength of 515 nm and an emission wavelength of 590 nm in a Microplate reader 1420 Multilabel HTS counter, Victor 2, (Wallac).
The fluorescence value of each well is corrected by subtracting the background value (average of column 11) from the absolute value. The percentages of inhibition are calculated relatively to the DMSO control wells (average of column 12). For each compound, the average value of the duplicate samples is calculated and the curve is fitted to Sigmoidal dose-response (variable slope) nonlinear regression curve adjustment (GraphPad) in order to calculate the IC50 (Tox50).

P. aeruginosa PA01 = test: General antimicrobial activity assay (CLSI broth microdilution), MIC; format: cell-based
Description: (§1) Whole-cell antimicrobial activity was determined by broth microdilution using the Clinical and Laboratory Standards Institute (CLSI) recommended procedure, Document M7-A7, “Methods for Dilution Susceptibility Tests for Bacteria that Grow Aerobically”.
(§2) Table 1 provides MIC values against bacterial strains K12; E. coli K12 tolC/Tn10; A. baumannii ATCC 17978; and P. aeruginosa PA01 for comparator compounds (C1-C15) shown in Table 4 and for G26-CH3. […] Similarly, compound G26-CH3 (Example 2) has poor activity against these Gram negative bacteria.

E. coli K12 = test: as above; format: cell-based
Description: as §1, §2

A. baumannii ATCC 17978 = test: as above; format: cell-based
Description: as §1, §2

Mtb H37Rv = test: MIC determination against mycobacteria (resazurin); format: cell-based, M. tuberculosis; conditions: for MIC: Mycobacterium tuberculosis, read-out: Mtb H37Rv MIC (B); for Selectivity Index (A/B): HepG2 Tox50 (A) / Mtb H37Rv MIC (B)
Human cyto LeuRS = Human cyto LeuRS (Homo sapiens, UniProt Q9P2J5); test: LeuRS aminoacylation assay, IC50 determination; format: biochemical; conditions: tRNA from Brewer's Yeast
E. coli K12 tolC::Tn10 = test: General antimicrobial activity assay (CLSI broth microdilution), MIC; format: cell-based; conditions: efflux pump deficient E. coli
Description: as §1, §2

[1] = test system: pathogenic Gram negative bacteria; test: General antimicrobial activity assay, summary in words for the panel; format: cell-based
Description: as §1, §2

S. aureus ATCC 29213 = test: General antimicrobial activity assay (CLSI broth microdilution), MIC; format: cell-based; set-up: unit not given beside the values
Description: as §1

Mtb LeuRS = Mtb LeuRS (Mycobacterium tuberculosis, UniProt P9WFV1); test: LeuRS aminoacylation assay, IC50 determination; format: biochemical, M. tuberculosis
Description: For biochemical analyses an N-terminal six histidine-tagged LeuRS was over-expressed in Escherichia coli which were E. coli codon-optimised (GenScript, Piscataway N.J., USA), from human mitochondria and cytoplasm, and M. tuberculosis. N-terminal six histidine-tagged LeuRS proteins were over-expressed and purified according to Novagen (Madison, Wis., USA) using an E. coli BL21(DE3) T7 RNA polymerase over-expression strain.
Experiments were performed in 96-well microtiter plates, using 80 μL reaction mixtures containing 50 mM HEPES-KOH (pH 8.0), 30 mM MgCl2 30 mM KCl, 13 μM L-[^14C]leucine (306 mCi/mmol, Perkin-Elmer), 15 uM total E. coli tRNA (Roche, Switzerland), 0.02% (w/v) BSA, 1 mM DTT, 0.2 μM LeuRS and 4 mM ATP at 30° C. Reactions were started by the addition of 4 mM ATP. After 7 minutes, reactions were quenched and tRNA was precipitated by the addition of 50 μL of 10% (w/v) TCA and transferred to 96-well nitrocellulose membrane filter plates (Millipore Multiscreen HTS, MSHAN4B50). Each well was then washed three times with 100 μL of 5% TCA. Filter plates were then dried under a heat lamp and the precipitated L-[^14C]leucine tRNALeu were quantified by liquid scintillation counting using a Wallac MicroBeta Trilux model 1450 liquid scintillation counter (PerkinElmer, Waltham, Mass., USA). The only difference was with the human cytoplasmic LeuRS when we used tRNA isolated from Brewer's Yeast (Roche Diagnostics GmbH).
Reactions were initiated by the addition of 4 mM ATP. Reactions were stopped after 7 minutes then precipitated and counted to quantify radioactivity. IC50 values were determined using the Graphpad Prism software package (Graphpad Software Inc. (La Jolla, Calif., USA).

[2] = test system: mammalian cellular protein synthesis; test: Inhibition of protein synthesis in mammalian cells; format: cell-based
S. pneumoniae ATCC 6301 = test: General antimicrobial activity assay (CLSI broth microdilution), MIC; format: cell-based
Description: as §1

[3] = M. tuberculosis standard strain H37Rv

Human cyto LeuRS, sequence (Q9P2J5 whole entry): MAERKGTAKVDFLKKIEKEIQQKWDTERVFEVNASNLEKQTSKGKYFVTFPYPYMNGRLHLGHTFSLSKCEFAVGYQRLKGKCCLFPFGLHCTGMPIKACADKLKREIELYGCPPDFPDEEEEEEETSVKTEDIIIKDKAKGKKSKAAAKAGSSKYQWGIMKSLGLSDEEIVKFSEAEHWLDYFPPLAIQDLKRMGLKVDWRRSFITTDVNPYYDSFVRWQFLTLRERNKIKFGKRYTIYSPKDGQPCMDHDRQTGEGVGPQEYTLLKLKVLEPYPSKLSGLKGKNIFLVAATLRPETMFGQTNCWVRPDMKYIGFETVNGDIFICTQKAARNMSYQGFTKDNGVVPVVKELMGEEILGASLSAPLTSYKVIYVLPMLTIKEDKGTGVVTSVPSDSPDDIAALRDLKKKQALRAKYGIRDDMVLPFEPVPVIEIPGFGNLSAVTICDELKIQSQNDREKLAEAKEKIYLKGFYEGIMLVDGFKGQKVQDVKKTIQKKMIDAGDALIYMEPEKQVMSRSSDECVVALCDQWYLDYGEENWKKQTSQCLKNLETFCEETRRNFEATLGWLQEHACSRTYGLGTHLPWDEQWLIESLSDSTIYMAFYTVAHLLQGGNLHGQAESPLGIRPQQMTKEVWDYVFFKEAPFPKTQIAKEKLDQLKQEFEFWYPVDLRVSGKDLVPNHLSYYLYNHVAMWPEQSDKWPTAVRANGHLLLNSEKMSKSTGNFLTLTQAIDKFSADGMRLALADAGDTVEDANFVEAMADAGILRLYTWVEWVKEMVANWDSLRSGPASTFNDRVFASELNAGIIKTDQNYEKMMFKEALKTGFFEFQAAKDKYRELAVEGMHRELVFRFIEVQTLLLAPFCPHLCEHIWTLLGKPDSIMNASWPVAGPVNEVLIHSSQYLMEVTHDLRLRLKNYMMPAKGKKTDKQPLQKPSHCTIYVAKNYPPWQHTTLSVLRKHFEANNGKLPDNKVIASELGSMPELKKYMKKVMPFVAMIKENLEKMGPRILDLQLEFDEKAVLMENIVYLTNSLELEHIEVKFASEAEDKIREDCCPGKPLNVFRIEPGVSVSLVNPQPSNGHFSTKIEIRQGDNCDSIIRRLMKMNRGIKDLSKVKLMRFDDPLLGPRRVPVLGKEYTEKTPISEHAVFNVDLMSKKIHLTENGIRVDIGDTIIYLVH
Mtb LeuRS, sequence (P9WFV1 whole entry): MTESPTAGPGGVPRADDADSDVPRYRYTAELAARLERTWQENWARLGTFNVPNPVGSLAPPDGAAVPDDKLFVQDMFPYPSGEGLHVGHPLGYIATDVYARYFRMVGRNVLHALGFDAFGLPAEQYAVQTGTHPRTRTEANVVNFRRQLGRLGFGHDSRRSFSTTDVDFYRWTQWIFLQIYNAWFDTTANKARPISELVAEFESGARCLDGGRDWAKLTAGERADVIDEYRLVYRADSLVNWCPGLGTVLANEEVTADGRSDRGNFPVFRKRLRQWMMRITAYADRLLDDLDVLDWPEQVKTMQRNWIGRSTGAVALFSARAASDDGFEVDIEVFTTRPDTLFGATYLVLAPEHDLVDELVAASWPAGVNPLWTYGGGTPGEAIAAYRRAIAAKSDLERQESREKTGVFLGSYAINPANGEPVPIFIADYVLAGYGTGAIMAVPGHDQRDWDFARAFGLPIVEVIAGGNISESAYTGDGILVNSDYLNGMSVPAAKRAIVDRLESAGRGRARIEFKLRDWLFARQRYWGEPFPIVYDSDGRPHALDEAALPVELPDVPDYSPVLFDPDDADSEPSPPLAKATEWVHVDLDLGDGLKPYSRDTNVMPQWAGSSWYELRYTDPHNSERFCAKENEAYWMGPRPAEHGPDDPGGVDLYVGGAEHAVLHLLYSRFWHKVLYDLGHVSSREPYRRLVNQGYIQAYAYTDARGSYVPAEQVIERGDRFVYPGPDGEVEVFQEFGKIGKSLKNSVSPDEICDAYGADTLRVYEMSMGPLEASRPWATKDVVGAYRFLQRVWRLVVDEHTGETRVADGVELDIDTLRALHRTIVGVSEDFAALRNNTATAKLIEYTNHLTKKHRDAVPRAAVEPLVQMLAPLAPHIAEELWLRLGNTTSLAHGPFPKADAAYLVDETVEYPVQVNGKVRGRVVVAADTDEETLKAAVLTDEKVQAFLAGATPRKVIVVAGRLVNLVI

In the case of `NCC1OB2OCCOc3cccc1c32` (racemic) [Example C2-H], the “HepG2 cell 48 h Tox50 (A)” value (HepG2 cells; human) was >50 µM, the “MIC: P. aeruginosa PA01” value (P. aeruginosa PA01) was 2 µg/mL (≈ 9.76 µM) and the “MIC: E. coli K12” value (E. coli K12) was 2 µg/mL (≈ 9.76 µM). For the same molecule, the “MIC: A. baumannii ATCC 17978” value (A. baumannii ATCC 17978) was 2 µg/mL (≈ 9.76 µM) and the MIC (Mtb H37Rv; H37RV) was 1.88 µM (≈ 0.385 µg/mL).

For `Cc1ccc2c3c1[C@@H](CN)OB3OCCO2` [Example 2, (S)-(3-methyl-7,8-dihydro-2H-1,6,9-trioxa-9a-borabenzo[cd]azulen-2-yl)methanamine], the pIC50 (Human cyto LeuRS) was 3.77, the “HepG2 cell 48 h Tox50 (A)” value (HepG2 cells; human) was 971 µM and the “MIC: E. coli K12 tolC::Tn10” value (E. coli K12 tolC::Tn10) was >64 µg/mL. The “MIC: P. aeruginosa PA01” value (P. aeruginosa PA01) was >64 µg/mL, the “MIC: E. coli K12” value (E. coli K12) was >64 µg/mL and the “MIC: A. baumannii ATCC 17978” value (A. baumannii ATCC 17978) was >64 µg/mL. The “activity against Gram negative bacteria” value [1] was “poor activity”, the “MIC S. aureus ATCC 29213” value (S. aureus ATCC 29213) was >64 and the pIC50 (Mtb LeuRS) was 6.28. The “activity against leucyl tRNA synthetase from M. tuberculosis” value (Mtb LeuRS) was “good activity”, the “impact on mammalian cellular protein synthesis” value [2] was “low impact” and the pIC50 ([2]; mammalian cells, read-out: Cell Prot Syn IC50) was < 3.22. For the same molecule, the “Selectivity Index (A/B)” value (Mtb H37Rv; listed as Example 2 G26-CH3) was 4853 and > 4850, the MIC (Mtb H37Rv; H37RV) was 0.2 µM (≈ 0.0438 µg/mL) and the “MIC: S. pneumoniae ATCC 6301” value (S. pneumoniae ATCC 6301) was >64.

`NC[C@H]1OB2OCCOc3ccc(-c4ccccc4)c1c32` [Example 3, (S)-(3-phenyl-7,8-dihydro-2H-1,6,9-trioxa-9a-borabenzo[cd]azulen-2-yl)methanamine hydrochloride] was tested, and the pIC50 (Mtb LeuRS; read-out: Mtb LeuRS IC50) was 4.92 and the MIC (Mtb H37Rv; H37RV) was 8.75 µM.

Work on `NC[C@H]1OB2OCCOc3ccc(-c4cccs4)c1c32` [Example 4, (S)-(3-(thiophen-2-yl)-7,8-dihydro-2H-1,6,9-trioxa-9a-borabenzo[cd]azulen-2-yl)methanamine] yielded a pIC50 (Mtb LeuRS; read-out: Mtb LeuRS IC50) of 3.52 and an MIC (Mtb H37Rv; H37RV) of 40.1 µM (≈ 11.5 µg/mL).

Work on `c1cc2c3c(c1)OCCOB3OC2` [Example C1-H] yielded an MIC (Mtb H37Rv; [3]) of 31 µM (≈ 5.46 µg/mL).

`NCCOc1cccc2c1B(O)OC2` [Example C3-H] was tested, and the “HepG2 cell 48 h Tox50 (A)” value (HepG2 cells) was >50 µM, the “Selectivity Index (A/B)” value (Mtb H37Rv) was >0.8 and the MIC (Mtb H37Rv; [3]) was 62 µM (≈ 12 µg/mL).

In the case of `CCOc1ccc(Br)c2c1B(O)O[C@@H]2CN` [Example C4-Br], the pIC50 (Human cyto LeuRS) was 4.14 and 4.17, the “HepG2 cell 48 h Tox50 (A)” value (HepG2 cells) was 32 µM and the “Selectivity Index (A/B)” value (Mtb H37Rv) was 320. The MIC (Mtb H37Rv; [3]) was 0.1 µM (≈ 0.0286 µg/mL).

For `CCOc1cccc2c1B(O)O[C@@H]2CN` [Example C5-H], the “HepG2 cell 48 h Tox50 (A)” value (HepG2 cells) was 1.8 µM, the “Selectivity Index (A/B)” value (Mtb H37Rv) was 3 and the MIC (Mtb H37Rv; [3]) was 0.6 µM (≈ 0.124 µg/mL).

With `CCOc1ccc(Cl)c2c1B(O)O[C@@H]2CN` [Example C6-Cl] the “HepG2 cell 48 h Tox50 (A)” value (HepG2 cells) was 36.3 µM, the “Selectivity Index (A/B)” value (Mtb H37Rv) was 363 and the MIC (Mtb H37Rv; [3]) was 0.1 µM (≈ 0.0241 µg/mL).

With `CC1COc2c(Cl)cc(Cl)c3c2B(O1)OC3CN` (centres unmarked) [Example C7-Cl2] the “HepG2 cell 48 h Tox50 (A)” value (HepG2 cells; human) was >50 µM, the “Selectivity Index (A/B)” value (Mtb H37Rv) was >20 and the MIC (Mtb H37Rv; H37RV) was 2.5 µM (≈ 0.72 µg/mL).

`CC1(C)COc2c(Cl)ccc3c2B(OC3CN)O1` (centres unmarked) [Example C8-Cl] was tested, and the “HepG2 cell 48 h Tox50 (A)” value (HepG2 cells; human) was >50 µM and the “Selectivity Index (A/B)” value (Mtb H37Rv) was 10.

For `CC1(C)COB2OC(CN)c3c(Cl)ccc(c32)O1` (centres unmarked) [Example C9-Cl], the “HepG2 cell 48 h Tox50 (A)” value (HepG2 cells; human) was >50 µM, the “Selectivity Index (A/B)” value (Mtb H37Rv) was >10 and the “Selectivity Index (A/B)” value (Mtb H37Rv; listed as C9-CI) was 10. For the same molecule, the MIC (Mtb H37Rv; H37RV) was 5 µM (≈ 1.34 µg/mL).

`CC1(C)COB2OC(CN)c3cccc(c32)O1` (centres unmarked) [Example C10-H] was tested, and the “HepG2 cell 48 h Tox50 (A)” value (HepG2 cells; human) was >50 µM and the “Selectivity Index (A/B)” value (Mtb H37Rv) was 10.

With `CC1COc2cccc3c2B(O1)OC3CN` (centres unmarked) [Example C11-H] the “HepG2 cell 48 h Tox50 (A)” value (HepG2 cells; human) was > 50 µM, the “HepG2 cell 48 h, percentage in brackets beside Tox50” value (HepG2 cells; meaning of bracket not explained) was 40% and the “MIC: P. aeruginosa PA01” value (P. aeruginosa PA01) was 2 µg/mL (≈ 9.13 µM). For the same molecule, the “MIC: E. coli K12” value (E. coli K12) was 2 µg/mL (≈ 9.13 µM), the “MIC: A. baumannii ATCC 17978” value (A. baumannii ATCC 17978) was 4 µg/mL (≈ 18.3 µM) and the MIC (Mtb H37Rv; H37RV) was 1.56 µM (≈ 0.342 µg/mL).

With `CC1(C)COc2cccc3c2B(OC3CN)O1` (centres unmarked) [Example C12-H] the “HepG2 cell 48 h Tox50 (A)” value (HepG2 cells; human) was 24.5 µM, the “MIC: P. aeruginosa PA01” value (P. aeruginosa PA01) was 16 µg/mL (≈ 68.6 µM) and the “MIC: E. coli K12” value (E. coli K12) was 4 µg/mL (≈ 17.2 µM). For the same molecule, the “MIC: A. baumannii ATCC 17978” value (A. baumannii ATCC 17978) was 4 µg/mL (≈ 17.2 µM).

In the case of `NC[C@H]1OB2OCCOc3c(Cl)ccc1c32` [Example C13-Cl], the “HepG2 cell 48 h Tox50 (A)” value (HepG2 cells; human) was >50 µM, the pIC50 (Mtb LeuRS; read-out: Mtb LeuRS IC50) was 5.67 and the “Selectivity Index (A/B)” value (Mtb H37Rv) was >10. It also gave an MIC (Mtb H37Rv; H37RV) of 5 µM (≈ 1.2 µg/mL).

For `NC[C@H]1OB2OCCOc3c(Cl)cc(Cl)c1c32` [Example C14-Cl2], the “HepG2 cell 48 h Tox50 (A)” value (HepG2 cells; human) was >50 µM and the “Selectivity Index (A/B)” value (Mtb H37Rv) was >10.
